What all share (assay type): in vivo
For test [1], the system named is diarrhea caused by a chemotherapeutic agent in Balb/c mice. Kind of test: Examples 343-381 (Table 6): oral versus intravenous CDK inhibitor, relief of diarrhea caused by a chemotherapeutic agent.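 Note: percent of treated mice whose diarrhea grade fell below chemotherapy-group average.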 To be noted: cycle 10 days. The source says:
Balb/c mice were fed for 1 week, and then divided into groups. The experiment was divided into a control group, a chemotherapeutic agent group, and an oral administration group of a CDK inhibitor, and an intravenous injection group of a CDK inhibitor, each of which comprised 10 mice, to perform the administration experiment, for which the administration dosage, mode, time and frequency were shown in Table 6. The control group: being injected/intragastrically administered with the same solvent as that used in the CDK inhibitor group (the time was shown in Table 6), and then being injected/intragastrically administered with the same solvent as that used in the chemotherapeutic agent group (the administration mode was shown in Table 6): the chemotherapeutic agent group: being injected/intragastrically administered with the same solvent as that used in the CDK inhibitor group (the time was shown in Table 6), and then being injected/intragastrically administered with the chemotherapeutic agent (the type, administration mode and dosage were shown in Table 6): the oral administration group of the CDK inhibitor: being intragastrically administered with the CDK inhibitor (the time was shown in Table 6), and then being administered with the chemotherapeutic agent (the mode and dosage were shown in Table 6): the intravenous injection group of the CDK inhibitor: being injected with the CDK inhibitor through tail vein (the time was shown in Table 6), and then being administered with the chemotherapeutic agent (the mode and dosage were shown in Table 6).
(§1) The diarrhea grading of mice was observed and recorded every day.

Test [2] has the same test system. The experiment in a line: Examples 230-271 (Table 4): oral CDK inhibitor, relief of diarrhea caused by a chemotherapeutic agent.
From the text: Balb/c mice were fed for 1 week, and then divided into groups. The experiment was divided into a control group, a chemotherapeutic agent group, and a CDK inhibitor group, each of which comprised 10 mice, to perform the administration experiment, for which the administration dosage, mode, time and frequency were shown in Table 4. The control group: being intragastrically administered with the same solvent as that used in the CDK inhibitor group (the time was shown in Table 4), and then being injected/intragastrically administered with the same solvent as that used in the chemotherapeutic agent group (the administration mode was shown in Table 4): the chemotherapeutic agent group: being intragastrically administered with the same solvent as that used in the CDK inhibitor group (the time was shown in Table 4), and then being injected/intragastrically administered with the chemotherapeutic agent (the type, administration mode and dosage were shown in Table 4): the CDK inhibitor group: being intragastrically administered with the CDK inhibitor (the time was shown in Table 4), and then being administered with the chemotherapeutic agent (the mode and dosage were shown in Table 4).
as §1

Test [3] has as its system Chemotherapeutic agent-caused diarrhea models of Balb/c mice. The experiment in a line: Examples 1-229 (Table 3): oral CDK inhibitor, relief of diarrhea caused by a chemotherapeutic agent.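 Note: percent of treated mice whose diarrhea grade fell below chemotherapy-group average.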
Test [4] relates to Chemotherapeutic agent-caused constipation models of Balb/c mice. Kind of test: Examples 272-342 (Table 5): oral CDK inhibitor, relief of constipation caused by a chemotherapeutic agent.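 Note: percent of treated mice relieved versus chemotherapy group by feces reduction rate.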 To be noted: Example 335; Cytarabine (Ara-C) oral administration 1000 mg/kg single; CDK inhibitor oral 60 mg/kg single, 24 h before; cycle 8 days. The source says: Construction of mouse animal models: Chemotherapeutic agent-caused constipation models of Balb/c mice were constructed according to the administration mode and frequency of the chemotherapeutic agent as shown in Table 5.
Balb/c mice were fed for 1 week, and then divided into groups. The experiment was divided into a control group, a chemotherapeutic agent group, and a CDK inhibitor group, each of which comprised 10 mice, to perform the administration experiment, for which the administration dosage, mode, time and frequency were shown in Table 5. The control group: being intragastrically administered with the same solvent as that used in the CDK inhibitor group (the time was shown in Table 5), and then being injected/intragastrically administered with the same solvent as that used in the chemotherapeutic agent group (the administration mode was shown in Table 5): the chemotherapeutic agent group: being intragastrically administered with the same solvent as that used in the CDK inhibitor group (the time was shown in […]), and then being injected/intragastrically administered with the chemotherapeutic agent (the type, administration mode and dosage were shown in Table 5): the CDK inhibitor group: being intragastrically administered with the CDK inhibitor (the time was shown in Table 5), and then being administered with the chemotherapeutic agent (the mode and dosage were shown in Table 5).
Feces reduction rate (%)=(the control group−the chemotherapeutic agent group or the CDK inhibitor group)/the control group*100%
The feces amount of mice within 3 hours was observed and recorded every day.

The structures appear in SMILES notation.

In the case of `CCc1cnn2c(NCc3ccc[n+]([O-])c3)cc(N3CCCC[C@H]3CCO)nc12` [Dinaciclib], the Relative remission rate in test [1] (Example 368, Topotecan (TP) intravenous injection 10 mg/kg single, CDK inhibitor intravenous injection 40 mg/kg single, 0.5 h before) amounted to 10%; in test [1] (Example 368, Topotecan (TP) intravenous injection 10 mg/kg single, CDK inhibitor oral 40 mg/kg single, 0.5 h before), 20%; in test [2] (Example 240, Doxorubicin (Dox) intramuscular injection 10 mg/kg single, CDK inhibitor oral 40 mg/kg single, 0.5 h before, cycle 10 days), 30%; in test [2] (Example 241, Doxorubicin (Dox) intramuscular injection 10 mg/kg single, CDK inhibitor oral 40 mg/kg single, 12 h before, cycle 10 days), 20%; in test [2] (Example 242, Doxorubicin (Dox) intramuscular injection 10 mg/kg single, CDK inhibitor oral 40 mg/kg single, 24 h before, cycle 10 days) it was 0%. Also, the “Relative remission rate (%)” value in test [3] (Example 131, Docetaxel (DTX) intraperitoneal injection 10 mg/kg single, CDK inhibitor oral 40 mg/kg single 0.5 h before, cycle 8 days) came to 10%; in test [3] (Example 132, Docetaxel (DTX) intraperitoneal injection 10 mg/kg single, CDK inhibitor oral 40 mg/kg single 1 h before, cycle 8 days), 10%; in test [3] (Example 133, Docetaxel (DTX) intraperitoneal injection 10 mg/kg single, CDK inhibitor oral 40 mg/kg single 2 h before, cycle 8 days), 20%; in test [3] (Example 134, Docetaxel (DTX) intraperitoneal injection 10 mg/kg single, CDK inhibitor oral 40 mg/kg single 4 h before, cycle 8 days), 20%; in test [3] (Example 135, Docetaxel (DTX) intraperitoneal injection 10 mg/kg single, CDK inhibitor oral 40 mg/kg single 6 h before, cycle 8 days), 30%; in test [3] (Example 136, Docetaxel (DTX) intraperitoneal injection 10 mg/kg single, CDK inhibitor oral 40 mg/kg single 8 h before, cycle 8 days), 30%. Moreover, the “Relative remission rate (%)” value in test [3] (Example 137, Docetaxel (DTX) intraperitoneal injection 10 mg/kg single, CDK inhibitor oral 40 mg/kg single 10 h before, cycle 8 days) worked out at 30%; in test [3] (Example 138, Docetaxel (DTX) intraperitoneal injection 10 mg/kg single, CDK inhibitor oral 40 mg/kg single 12 h before, cycle 8 days), 20%; in test [3] (Example 139, Docetaxel (DTX) intraperitoneal injection 10 mg/kg single, CDK inhibitor oral 40 mg/kg single 14 h before, cycle 8 days), 20%; in test [3] (Example 140, Docetaxel (DTX) intraperitoneal injection 10 mg/kg single, CDK inhibitor oral 40 mg/kg single 16 h before, cycle 8 days), 40%; in test [3] (Example 141, Docetaxel (DTX) intraperitoneal injection 10 mg/kg single, CDK inhibitor oral 40 mg/kg single 18 h before, cycle 8 days) it was 30%; in test [3] (Example 142, Docetaxel (DTX) intraperitoneal injection 10 mg/kg single, CDK inhibitor oral 40 mg/kg single 20 h before, cycle 8 days), 30%. Further, the “Relative remission rate (%)” value in test [3] (Example 143, Docetaxel (DTX) intraperitoneal injection 10 mg/kg single, CDK inhibitor oral 40 mg/kg single 22 h before, cycle 8 days) amounted to 20%; in test [3] (Example 144, Docetaxel (DTX) intraperitoneal injection 10 mg/kg single, CDK inhibitor oral 40 mg/kg single 24 h before, cycle 8 days), 10%; in test [3] (Example 145, Docetaxel (DTX) intraperitoneal injection 10 mg/kg single, CDK inhibitor oral 40 mg/kg single 48 h before, cycle 8 days), 0%; in test [3] (Example 204, Gemcitabine 60 mg/kg and paclitaxel 10 mg/kg intraperitoneal injection single, CDK inhibitor oral 70 mg/kg single, 4 h before, 8 days) it was 30%.
As for `CN1CCC(c2c(O)cc(O)c3c(=O)cc(-c4ccccc4Cl)oc23)C1CO` (stereo not shown) [Riviciclib], the Relative remission rate is listed as 10% in test [1] (Example 370, Topotecan (TP) oral administration 20 mg/kg single, CDK inhibitor intravenous injection 60 mg/kg single, 24 h before); 30% in test [1] (Example 370, Topotecan (TP) oral administration 20 mg/kg single, CDK inhibitor oral 60 mg/kg single, 24 h before); 20% in test [2] (Example 262, Cytarabine (Ara-C) oral administration 1000 mg/kg single, CDK inhibitor oral single (dosage not given), 24 h before, cycle 8 days); 20% in test [4]. Further, the “Relative remission rate (%)” value in test [3] (Example 35, Fluorouracil (5-Fu) intraperitoneal injection 125 mg/kg single, CDK inhibitor oral 65 mg/kg single 8 h before, cycle 10 days) is given as 40%; in test [3] (Example 192, Gemcitabine (GEM) intravenous injection 120 mg/kg single, CDK inhibitor oral 180 mg/kg single, 6 h before, 8 days), 70%; in test [3] (Example 215, Fluorouracil 100 mg/kg and irinotecan 200 mg/kg intravenous injection single, CDK inhibitor oral 65 mg/kg single, 2 h before, 10 days), 50%.
